# Measured values as given in US8338422B2, “Indolin-2-ones and aza-indolin-2-ones” (Janssen Pharmaceutica NV, priority 2007, dated 2012).
# How the values were obtained:
# GSK3β (h) = GSK3β (h) (Homo sapiens, UniProt P49841); test: GSK-3β human kinase assay (SPA); type: biochemical; settings: for IC50: read-out: GSK3B pIC50 (converted)
# Procedure, shortened: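 Radiometric SPA read-out: after EDTA stop, biotinylated 33P-labelled peptide bound streptavidin PVT beads and was imaged on Leadseeker. Reaction: 60 min, room temperature, GSK3β (h) at 1 μg/ml, 1 μM substrate peptide, 1 μM ATP with 2 nM [γ-33P]ATP, Tris pH 7.4/MgCl2/DTT buffer.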
# MDA/MB231 = test: Cellular proliferation assay (Alamar blue), MDA/MB231; type: cell-based; settings: MDA/MB231 cells, 72 hours with compound, 10% FCS; for IC50: Homo sapiens, MDA-MB-231, 72 h, read-out: pIC50 MDA/MB231 (converted)
# Description: (§1) […] functional properties of these compounds was tested in cellular proliferation assays on a panel of different cell lines in the presence of 10% FCS serum (37° C. and 5% (v/v) CO2). In a first step these cells were seeded and incubated for 24 hours in the absence of compound. In the second step the cells were incubated for 72 hours with the compounds to be tested for 72 hours. The viable cell number was finally assessed in a standard Alamar blue cell viability assay.
# (§2) The viable cell number was assessed by incubation for either 4 h (HCT-116, H1299, H460) 6 h (SKOV3, HT29, U87-MG, Colo205) or 24 h (A2780, PC3, MDA-MB-231, A549, MCF-7) with Alamar blue (Resazurin 9 μg/ml, K-Ferrocyanide 90 μM K-Ferricyanide 90 μM) and the converted fluorescent product was quantified on a fluorescent plate readed (544 nm/590 nm). Effect of the compounds is calculated as of on control cells.
# H1299 = test: Cellular proliferation assay (Alamar blue), H1299; type: cell-based; settings: H1299 cells, 72 hours with compound, 10% FCS; for IC50: Homo sapiens, NCI-H1299, 72 h, read-out: pIC50 H1299 (converted)
# Description: as §1, §2
# CDK1/CyclinB (h) = CDK1/CyclinB (h) (Homo sapiens, UniProt P06493); test: CDK1/CyclinB human kinase assay (FRET); type: biochemical; settings: for IC50: read-out: CDK1 pIC50 (converted)
# Chain of CDK1/CyclinB (h) (P06493 whole entry): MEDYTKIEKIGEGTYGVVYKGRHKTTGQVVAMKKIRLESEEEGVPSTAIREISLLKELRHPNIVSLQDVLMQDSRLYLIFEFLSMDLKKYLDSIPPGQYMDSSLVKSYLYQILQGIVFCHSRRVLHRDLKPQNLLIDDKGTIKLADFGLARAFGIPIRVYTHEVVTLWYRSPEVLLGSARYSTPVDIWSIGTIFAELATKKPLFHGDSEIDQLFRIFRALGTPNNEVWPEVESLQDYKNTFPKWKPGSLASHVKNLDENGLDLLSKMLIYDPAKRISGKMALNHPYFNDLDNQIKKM
# Chain of CDK1/CyclinB (h) (P14635 whole entry partner): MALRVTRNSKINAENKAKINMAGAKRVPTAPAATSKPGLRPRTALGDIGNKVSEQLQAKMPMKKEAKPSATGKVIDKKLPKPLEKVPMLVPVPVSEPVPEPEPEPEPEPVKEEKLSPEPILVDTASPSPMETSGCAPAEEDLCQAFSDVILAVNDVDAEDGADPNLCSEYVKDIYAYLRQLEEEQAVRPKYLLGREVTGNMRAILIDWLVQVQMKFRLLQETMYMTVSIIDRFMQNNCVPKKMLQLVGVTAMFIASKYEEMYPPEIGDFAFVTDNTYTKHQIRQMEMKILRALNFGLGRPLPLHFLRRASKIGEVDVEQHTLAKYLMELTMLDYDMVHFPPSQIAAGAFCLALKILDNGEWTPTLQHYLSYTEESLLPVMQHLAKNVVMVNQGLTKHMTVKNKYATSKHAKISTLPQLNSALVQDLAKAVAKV
# Procedure, shortened: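 Kinase activity was read as the 460/538 nm emission ratio after protease cleavage of unphosphorylated peptide (60 min development). The reaction ran 60 min at room temperature with 10 μM ATP, 2 μM Ser/Thr peptide 12 and 0.2 μg/ml enzyme in Hepes pH 7.5 buffer with MgCl2, EGTA, Brij-35.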
# AuroraB (h) = AuroraB (h) (Homo sapiens, UniProt Q96GD4); test: Aurora-B human kinase assay (SPA); type: biochemical; settings: for IC50: read-out: AuroraB pIC50 (converted)
# Chain of AuroraB (h) (Q96GD4 whole entry): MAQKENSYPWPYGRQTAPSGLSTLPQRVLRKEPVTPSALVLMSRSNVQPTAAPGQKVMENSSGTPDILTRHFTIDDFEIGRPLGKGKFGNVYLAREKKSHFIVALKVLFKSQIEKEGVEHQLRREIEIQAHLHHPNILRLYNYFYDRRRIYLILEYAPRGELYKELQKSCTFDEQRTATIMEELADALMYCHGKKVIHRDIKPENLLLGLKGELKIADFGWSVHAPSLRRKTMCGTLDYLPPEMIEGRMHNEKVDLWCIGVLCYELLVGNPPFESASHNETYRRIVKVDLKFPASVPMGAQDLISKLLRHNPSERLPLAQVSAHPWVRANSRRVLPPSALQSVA
# Procedure, shortened: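 33P-phosphorylated biotin-substrate captured on streptavidin PVT SPA beads after EDTA-containing stop and imaged on Leadseeker. Reaction: 60 min at room temperature, Hepes pH 7.5 with Mg2+/Mn2+. Conditions: 0.5 μM ATP plus 2.2 nM [γ-33P]ATP, 3 μM substrate, 0.5 μg/ml human AuroraB.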
# U87MG = test: Cellular proliferation assay (Alamar blue), U87MG; type: cell-based; settings: U87MG cells, 72 hours with compound, 10% FCS; for IC50: Homo sapiens, U-87 MG, 72 h, read-out: pIC50 U87MG (converted)
# Description: as §1, §2
# PLK4 (h) = PLK4 (h) (Homo sapiens, UniProt O00444); test: PLK-4 human kinase assay (SPA); type: biochemical; settings: for IC50: read-out: PLK4 pIC50 (converted)
# Chain of PLK4 (h) (O00444 whole entry): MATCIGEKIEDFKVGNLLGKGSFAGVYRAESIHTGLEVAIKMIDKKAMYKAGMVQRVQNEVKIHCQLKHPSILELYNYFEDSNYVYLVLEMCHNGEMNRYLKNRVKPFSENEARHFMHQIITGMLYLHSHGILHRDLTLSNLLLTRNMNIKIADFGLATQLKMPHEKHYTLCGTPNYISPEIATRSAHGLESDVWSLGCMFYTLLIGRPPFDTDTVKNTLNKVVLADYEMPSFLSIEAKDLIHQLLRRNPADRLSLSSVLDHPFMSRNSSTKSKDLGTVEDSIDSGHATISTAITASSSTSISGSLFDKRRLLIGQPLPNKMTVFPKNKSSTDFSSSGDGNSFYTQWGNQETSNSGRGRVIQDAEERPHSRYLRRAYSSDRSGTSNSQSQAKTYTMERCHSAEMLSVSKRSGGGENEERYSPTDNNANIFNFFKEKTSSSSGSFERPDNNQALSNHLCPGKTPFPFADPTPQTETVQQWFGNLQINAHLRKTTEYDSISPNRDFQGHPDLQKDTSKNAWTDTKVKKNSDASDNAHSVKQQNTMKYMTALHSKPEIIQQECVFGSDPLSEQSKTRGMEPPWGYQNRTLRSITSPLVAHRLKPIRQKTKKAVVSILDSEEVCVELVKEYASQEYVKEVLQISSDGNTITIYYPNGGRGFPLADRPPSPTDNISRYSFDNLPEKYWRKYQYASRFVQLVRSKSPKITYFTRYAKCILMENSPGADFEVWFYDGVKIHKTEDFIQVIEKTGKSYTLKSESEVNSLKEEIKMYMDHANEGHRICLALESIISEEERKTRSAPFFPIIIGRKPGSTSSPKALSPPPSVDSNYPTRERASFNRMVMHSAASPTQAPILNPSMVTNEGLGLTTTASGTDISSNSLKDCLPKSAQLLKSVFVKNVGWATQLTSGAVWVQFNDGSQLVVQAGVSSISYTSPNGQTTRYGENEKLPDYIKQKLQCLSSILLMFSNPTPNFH
# Procedure, shortened: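 Radiometric readout: 33P-labelled peptide captured on streptavidin SPA beads after EDTA stop, imaged by Leadseeker. Reaction ran 60 min at room temperature in Hepes pH 8.0 buffer. It contained 1 μM ATP with 2 nM [γ-33P]ATP, 10 μM biotinylated peptide and PLK4 (h) at 19 μg/ml.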
# PC-3 = test: Cellular proliferation assay (Alamar blue), PC-3; type: cell-based; settings: PC-3 cells, 72 hours with compound, 10% FCS; for IC50: Homo sapiens, PC-3, 72 h, read-out: pIC50 PC-3 (converted)
# Description: as §1, §2
# HCT-116 = test: Cellular proliferation assay (Alamar blue), HCT-116; type: cell-based; settings: HCT-116 cells, 72 hours with compound, 10% FCS; for IC50: Homo sapiens, HCT-116, 72 h, read-out: pIC50 HCT-116 (converted)
# Description: as §1, §2
# A2780 = test: Cellular proliferation assay (Alamar blue), A2780; type: cell-based; settings: A2780 cells, 72 hours with compound, 10% FCS; for IC50: Homo sapiens, A2780, 72 h, read-out: pIC50 A2780 (converted)
# Description: as §1, §2
# Chain of GSK3β (h) (P49841 whole entry): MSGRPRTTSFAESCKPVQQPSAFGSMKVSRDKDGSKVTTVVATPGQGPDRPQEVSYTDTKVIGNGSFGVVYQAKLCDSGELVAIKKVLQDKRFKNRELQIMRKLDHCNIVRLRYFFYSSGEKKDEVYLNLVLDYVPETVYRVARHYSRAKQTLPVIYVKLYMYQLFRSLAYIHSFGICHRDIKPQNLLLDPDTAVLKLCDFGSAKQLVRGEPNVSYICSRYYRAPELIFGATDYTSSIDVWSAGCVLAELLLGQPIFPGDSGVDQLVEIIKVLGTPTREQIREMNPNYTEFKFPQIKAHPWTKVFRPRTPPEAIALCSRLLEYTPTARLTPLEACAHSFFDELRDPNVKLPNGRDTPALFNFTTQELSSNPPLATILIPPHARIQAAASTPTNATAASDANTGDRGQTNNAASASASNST
Compound,GSK3B pIC50 (GSK3β (h)),pIC50 MDA/MB231 (MDA/MB231),pIC50 H1299 (H1299),CDK1 pIC50 (CDK1/CyclinB (h)),AuroraB pIC50 (AuroraB (h)),pIC50 U87MG (U87MG),PLK4 pIC50 (PLK4 (h)),pIC50 PC-3 (PC-3),pIC50 HCT-116 (HCT-116),pIC50 A2780 (A2780),IC50 (GSK3β (h)) [µM],IC50 (MDA/MB231) [µM],IC50 (H1299) [µM],IC50 (CDK1/CyclinB (h)) [µM],IC50 (AuroraB (h)) [µM],IC50 (U87MG) [µM],IC50 (PLK4 (h)) [µM],IC50 (PC-3) [µM],IC50 (HCT-116) [µM],IC50 (A2780) [µM]
CN1CCNc2ncnc3c2C(=CNc2cccc(c2)OCCCC1=O)C(=O)N3 (mixture of isomers) [Compound 58],6.88,<5,5.89,6.16,6.33,5.13,6.75,<5,6.17,6.2,,,,,,,,,,
CN1CCCNc2ncnc3c2C(=CNc2ccc(N4CCOCC4)c(c2)OCCCC1=O)C(=O)N3 (mixture of isomers) [Compound 124],7.33,5.37,6.89,7.53,6.13,6.16,7.34,6.02,6.21,5.94,,,,,,,,,,
COc1cc2cc(c1OC)OCCCCC(=O)N(C)CCNc1ncnc3c1C(=CN2)C(=O)N3 (mixture of isomers) [Compound 129],<5,<5,5.65,<5,5.26,5.42,5.71,<5,<5,<5,,,,,,,,,,
COc1cc2cc(c1OC)OCCCCC(=O)N(C)CCCNc1ncnc3c1C(=CN2)C(=O)N3 (mixture of isomers) [Compound 134],5.35,5.03,5.76,5.68,6.59,<5,6.6,5.44,5.79,5.07,,,,,,,,,,
CN1CCN(c2ccc3cc2OCCCCC(=O)N(C)CCNc2ncnc4c2C(=CN3)C(=O)N4)CC1 (mixture of isomers) [Compound 135],6.2,<5,5.31,<5,<5,<5,6.67,<5,5.21,<5,,,,,,,,,,
CN1CCN(c2ccc3cc2OCCCCC(=O)N(C)CCCNc2ncnc4c2C(=CN3)C(=O)N4)CC1 (mixture of isomers) [Compound 136],7.23,5.55,5.67,5.88,5.55,6.54,7.19,5.39,6.44,5.89,,,,,,,,,,
CN1CCN(c2ccc3cc2OCCCC(=O)N(C)CCNc2ncnc4c2C(=CN3)C(=O)N4)CC1 (mixture of isomers) [Compound 137],6.405,5.31,5.73,5.83,~5,5.94,7.3,<5,6.04,5.61,,,,,,,,,,
CN1CCN(c2ccc3cc2OCCCCCC(=O)N(C)CCCNc2ncnc4c2C(=CN3)C(=O)N4)CC1 (mixture of isomers) [Compound 138],6.75,<5,<5,5.8,<5,6.05,6.74,<5,5.52,5.16,,,,,,,,,,
CN1CCCCCC(=O)N(C)CCCNc2ncnc3c2C(=CNc2ccc(N4CCOCC4)c(c2)C1)C(=O)N3 (mixture of isomers) [Compound 139],5.87,<5,<5,<5,<5,5.35,6.64,<5,5.51,5.08,,,,,,,,,,
COc1ccc2cc1OCCCC(=O)N(C(C)C)CCCNc1ncnc3c1C(=CN2)C(=O)N3 (mixture of isomers) [Compound 144],7.32,5.92,6.56,6.12,7.25,5.89,7.03,6.14,6.32,5.87,,,,,,,,,,
COc1ccc2cc1OCCCC(=O)N(C1CCCCC1)CCCNc1ncnc3c1C(=CN2)C(=O)N3 (mixture of isomers) [Compound 145],6.4,5.73,6.08,<5,6.41,5.45,6.61,6.04,6.04,5.53,,,,,,,,,,
COc1cc2cc(c1OC)OCCCC(=O)NCCCNc1ncnc3c1C(=CN2)C(=O)N3 (mixture of isomers) [Compound 147],6.5,<5,5.97,6.91,6.6,5.35,6.95,5.42,5.90,5.37,,,,,,,,,,
COc1cc2cc(c1OC)OCC(=O)N(C)CCCCNc1ncnc3c1C(=CN2)C(=O)N3 (mixture of isomers) [Compound 150],<5,<5,<5,<5,5.23,<5,<5,<5,<5,<5,,,,,,,,,,
CN1CCNC(=O)CCCCCCOc2cccc(c2)N/C=C2\C(=O)Nc3ncnc1c32 [Compound 36],,,,,,,,,,,2,> 10,> 10,> 10,> 10,> 10,2.24,> 10,> 10,> 10
COc1ccc2cc1OCCCCCC(=O)N(C)CCNc1ncnc3c1/C(=C/N2)C(=O)N3 [Compound 37],,,,,,,,,,,0.0851,> 10,3.16,2.14,0.214,1.82,0.55,9.55,6.03,7.59
COc1ccc2cc1OCCCC(=O)NCCN(C)c1ncnc3c1/C(=C/N2)C(=O)N3 [Compound 38],,,,,,,,,,,3.63,> 10,> 10,> 10,> 10,> 10,2.63,> 10,> 10,> 10
